How the values were obtained:
human EP3 receptor = human EP3 receptor (Homo sapiens (Human), UniProt P43115); assay: EP3 binding activity measurement experiment using prostanoid receptor subtype expressing cells; details: human EP3 receptor expressing cell membrane fraction; [3H]-PGE2 2.5 nmol/L; Ki calculated from estimated IC50
Protocol: To each well of a 96 well plate, 10 μL of a medium (dimethyl sulfoxide; DMSO) which had been 10-fold diluted with an assay buffer solution (10 mmol/L KH2PO4—KOH containing 1 mmol/L EDTA, 10 mmol/L Mg^2+ and 100 mmol/L NaCl, pH6.0) or a DMSO solution of a test compound (final concentration of DMSO: 0.5%), 90 μL of assay buffer solution, 50 μL of 10 nmol/L [^3H]-PGE2 (final concentration: 2.5 nmol/L), and 50 μL of human EP3 receptor expressing cell membrane fraction (manufactured by Millipore) (membrane protein mass: 2.5 μg) were placed, and subjected to incubation at room temperature. In nonspecific binding group, instead of the medium, […] of PGE2 was added (final concentration of PGE2: 10 μmol/L). After 60 minutes, a membrane fraction was subjected to suction filtration using a cell harvester, and collected onto a glass fiber (GF/B) plate (hereinafter, “filter plate”) which had been wetted with a washing buffer solution (10 mmol/L KH2PO4—KOH containing 100 mmol/L NaCl, pH6.0) in advance. Furthermore, an operation of adding about 0.2 mL of the washing buffer solution to the 96 well plate after suction filtration, and carrying out suction filtration was repeated twice, and the remaining membrane fractions were collected. The filter plate was washed with […] of washing buffer solution twice, and then dried at 50° C. to 60° C. for about 60 minutes. After an accessary back seal was attached to the bottom surface of the filter plate, about 50 μL per well of liquid scintillation cocktail was added to the filter plate, and a scaling film sheet was attached to the upper surface of the filter plate. The filter plate was shaken, and then radioactivity (cpm) of the filter plate was measured using a microplate scintillation counter. A specific binding amount of [^3H]-PGE2 to EP3 receptor was calculated by subtracting the radioactivity of the nonspecific binding group from the radioactivity other than the radioactivity of the nonspecific binding group. The inhibition rate by the test compound was calculated from the specific binding amount of [^3H]-PGE2 in a medium group and the compound of the present invention group, a Ki value (dissociation constant of the test compound) was calculated from estimated IC50 value (the concentration of the test compound required for inhibiting 50% with respect to the specific binding amount of the medium group) according to the following formula.
Note here that the Kd value of [^3H]-PGE2 was estimated from nonlinear regression analysis by calculating a specific binding amount at the time when [^3H]-PGE2 having various concentrations according to the above method was added. As a result, it was shown that the compound of the present invention had weak binding activity with respect to EP3 receptor, and was an antagonist selective to the EP4 receptor. Note here that binding activities with respect to EP1 and EP2 receptors can be measured by the same method as the measurement experiment of the EP3 binding activity measurement experiment.

human EP4 receptor = human EP4 receptor (Homo sapiens (Human), UniProt P35408); assay: EP4 antagonistic activity measurement experiment using prostanoid receptor subtype expressing cells; assay type: cell-based; details: CHO cells expressing human EP4 receptor; inhibition of cAMP production by PGE2 10 nM; 30 minutes at room temperature
Chain of human EP4 receptor (P35408 whole entry): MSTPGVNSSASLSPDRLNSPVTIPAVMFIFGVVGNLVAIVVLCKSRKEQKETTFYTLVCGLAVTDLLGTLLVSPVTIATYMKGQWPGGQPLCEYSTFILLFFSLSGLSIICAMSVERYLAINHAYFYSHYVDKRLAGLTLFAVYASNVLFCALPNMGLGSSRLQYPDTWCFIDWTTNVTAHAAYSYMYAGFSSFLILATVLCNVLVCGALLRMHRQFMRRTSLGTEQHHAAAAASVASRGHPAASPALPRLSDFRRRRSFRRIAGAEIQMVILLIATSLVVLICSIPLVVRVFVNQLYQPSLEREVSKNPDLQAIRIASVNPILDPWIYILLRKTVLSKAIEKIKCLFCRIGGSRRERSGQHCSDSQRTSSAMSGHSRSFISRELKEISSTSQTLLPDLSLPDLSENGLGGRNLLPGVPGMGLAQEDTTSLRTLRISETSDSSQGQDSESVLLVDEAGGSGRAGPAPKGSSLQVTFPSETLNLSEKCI
Protocol: CHO cells expressing human EP4 receptor subtypes were prepared according to the methods of Nishigaki et al. (Non-Patent Literature 4), and used for experiment. Cells cultured to subconfluent were detached, and suspended in an assay medium (MEM containing 1 mmol/L IBMX, 1% HSA) such that a concentration became 1×10^6 cells/mL. For reaction, PGE2 was added to the cell suspension (25 μL) in a final concentration of 10 nmol/L, either alone or as a 25-μL PGE2 solution containing the test compound. After 30 minutes of reaction at room temperature, the amount of cAMP in the cells was quantified according to the method in the descriptions of the cAMP assay kit (CISBIO).
Note here that the antagonistic effect (IC50 value) of the test compound was calculated as a value that represents an inhibition rate against a reaction with PGE2 alone at 10 nM, a concentration that produces a submaximal cAMP producing effect.

Chain of human EP3 receptor (P43115 whole entry): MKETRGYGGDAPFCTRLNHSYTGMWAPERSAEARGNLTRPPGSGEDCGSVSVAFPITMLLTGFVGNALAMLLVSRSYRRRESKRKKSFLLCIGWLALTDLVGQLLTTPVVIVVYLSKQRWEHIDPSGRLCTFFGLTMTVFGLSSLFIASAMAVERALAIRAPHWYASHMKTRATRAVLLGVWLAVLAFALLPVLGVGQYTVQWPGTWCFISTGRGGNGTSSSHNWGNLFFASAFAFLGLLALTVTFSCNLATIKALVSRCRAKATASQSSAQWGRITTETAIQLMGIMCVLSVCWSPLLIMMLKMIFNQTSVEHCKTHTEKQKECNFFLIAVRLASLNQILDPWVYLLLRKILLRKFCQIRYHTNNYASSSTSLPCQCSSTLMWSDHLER

SMILES: COCCNC(=O)c1ccc2c(C)cn(C(C)C(=O)Nc3cc(Cn4cc(C)cn4)ccc3CCCC(=O)O)c2c1 (single isomer, unassigned) [Example 3-9(2), 4-{2-[(2-{6-[(2-methoxyethyl)carbamoyl]-3-methyl-1H-indol-1-yl}propanoyl)amino]-4-[(4-methyl-1H-pyrazol-1-yl)methyl]phenyl}butanoic acid]
- Ki (human EP3 receptor): 410 nM
- IC50 (human EP4 receptor): 0.7 nM

SMILES: CNC(=O)c1ccc2c(C)cn(C(C)C(=O)Nc3cc(C(=O)c4cnn(C)c4)ccc3CCCC(=O)O)c2c1 (centres unmarked) [Example 18-5(2)]
- Ki (human EP3 receptor): 120 nM
- IC50 (human EP4 receptor): 3.2 nM

SMILES: COCCNC(=O)c1ccc2c(C)cn(C(C)C(=O)Nc3cc(C#N)ccc3CCCC(=O)O)c2c1 (single isomer, unassigned) [Example 11-15(2), 4-{4-cyano-2-[(2-{6-[(2-methoxyethyl)carbamoyl]-3-methyl-1H-indol-1-yl}propanoyl)amino]phenyl}butanoic acid]
- Ki (human EP3 receptor): 2300 nM
- IC50 (human EP4 receptor): 1.9 nM

SMILES: COCCNC(=O)c1ccc2c(c1)c(C)cn2C(C)C(=O)Nc1cc(Cn2cc(C)cn2)ccc1CCCC(=O)O (single isomer, unassigned) [Example 8-13(2), 4-{2-[(2-{5-[(2-methoxyethyl)carbamoyl]-3-methyl-1H-indol-1-yl}propanoyl)amino]-4-[(4-methyl-1H-pyrazol-1-yl)methyl]phenyl}butanoic acid]
- Ki (human EP3 receptor): 1600 nM
- IC50 (human EP4 receptor): 6.3 nM

SMILES: CNC(=O)c1ccc2c(C)cn(C(C)C(=O)Nc3cc(CN4CCCS4(=O)=O)ccc3CCCC(=O)O)c2c1 (centres unmarked) [Example 1, 4-{4-[(1,1-dioxide-1,2-thiazolidin-2-yl)methyl]-2-({2-[3-methyl-6-(methylcarbamoyl)-1H-indol-1-yl]propanoyl}amino)phenyl}butanoic acid]
- Ki (human EP3 receptor): > 10000 nM
- IC50 (human EP4 receptor): 27 nM

SMILES: CNC(=O)c1ccc2c(c1)c(C)cn2C(C)C(=O)Nc1cc(Cn2cc(C)cn2)ccc1CCCC(=O)O (single isomer, unassigned) [Example 8-3(2), 4-{2-({2-[3-methyl-5-(methylcarbamoyl)-1H-indol-1-yl]propanoyl}amino)-4-[(4-methyl-1H-pyrazol-1-yl)methyl]phenyl}butanoic acid]
- Ki (human EP3 receptor): 1500 nM
- IC50 (human EP4 receptor): 4.8 nM

SMILES: Cc1cnn(Cc2ccc(CCCC(=O)O)c(NC(=O)C(C)n3cc(C)c4ccc(C(=O)NCC5CC5)cc43)c2)c1 (single isomer, unassigned) [Example 3-20(2), 4-{2-[(2-{6-[(cyclopropylmethyl)carbamoyl]-3-methyl-1H-indol-1-yl}propanoyl)amino]-4-[(4-methyl-1H-pyrazol-1-yl)methyl]phenyl}butanoic acid]
- IC50 (human EP4 receptor): 1.4 nM

SMILES: CCNC(=O)c1ccc2c(C)cn(C(C)C(=O)Nc3cc(Cn4cc(C)cn4)ccc3CCCC(=O)O)c2c1 (single isomer, unassigned) [Example 3-3(2), 4-{2-({2-[6-(ethylcarbamoyl)-3-methyl-1H-indol-1-yl]propanoyl}amino)-4-[(4-methyl-1H-pyrazol-1-yl)methyl]phenyl}butanoic acid]
- IC50 (human EP4 receptor): 0.9 nM

SMILES: CCNC(=O)c1ccc2c(C)cn([C@H](C)C(=O)Nc3cc(C#N)ccc3CCCC(=O)O)c2c1 [Example 11-1(2)]
- IC50 (human EP4 receptor): 1.3 nM

SMILES: CC(C(=O)Nc1cc(C#N)ccc1CCCC(=O)O)c1c[nH]c2ccccc12 (centres unmarked) [4-[4-cyano-2-[2-(indol-3-yl)propanoylamino]phenyl]butanoic acid, reference compound]
- IC50 (human EP4 receptor): 360 nM

SMILES: CNC(=O)c1ccc2c(C)cn(C(C)C(=O)Nc3cc(Cn4nc(C)cc4C(F)(F)F)ccc3CCCC(=O)O)c2c1 (single isomer, unassigned) [Example 2-27(4), 4-[2-({2-[3-methyl-6-(methylcarbamoyl)-1H-indol-1-yl]propanoyl}amino)-4-{[3-methyl-5-(trifluoromethyl)-1H-pyrazol-1-yl]methyl}phenyl]butanoic acid]
- IC50 (human EP4 receptor): 1.8 nM

SMILES: CCCNC(=O)c1ccc2c(C)cn(C(C)C(=O)Nc3cc(Cn4cc(C)cn4)ccc3CCCC(=O)O)c2c1 (single isomer, unassigned) [Example 3-5(2), 4-{2-({2-[3-methyl-6-(propylcarbamoyl)-1H-indol-1-yl]propanoyl}amino)-4-[(4-methyl-1H-pyrazol-1-yl)methyl]phenyl}butanoic acid]
- IC50 (human EP4 receptor): 2.1 nM

SMILES: CNC(=O)c1ccc2c(C)cn(C(C)C(=O)Nc3cc(CN4CCCCS4(=O)=O)ccc3CCCC(=O)O)c2c1 (centres unmarked) [Example 2, 4-{4-[(1,1-dioxide-1,2-thiazinan-2-yl)methyl]-2-({2-[3-methyl-6-(methylcarbamoyl)-1H-indol-1-yl]propanoyl}amino)phenyl}butanoic acid]
- IC50 (human EP4 receptor): 39 nM

SMILES: COCCNC(=O)c1ccc2ccn(C(C)C(=O)Nc3cc(C#N)ccc3CCCC(=O)O)c2c1 (single isomer, unassigned) [Example 10-1(2), 4-{4-cyano-2-[(2-{6-[(2-methoxyethyl)carbamoyl]-1H-indol-1-yl}propanoyl)amino]phenyl}butanoic acid]
- IC50 (human EP4 receptor): 3.7 nM
